Assay [1] deals with T1, menin/MLL (terbium chelate-labeled menin, FITC-MBM1 peptide) (Homo sapiens, UniProt O00255, T541A).
T1 construct: Menin (a.a 1-610-6xhis tag, 2.3 mg/mL in 20 mM Hepes)
T1 sequence (O00255 with tags, fused parts or gaps T541A): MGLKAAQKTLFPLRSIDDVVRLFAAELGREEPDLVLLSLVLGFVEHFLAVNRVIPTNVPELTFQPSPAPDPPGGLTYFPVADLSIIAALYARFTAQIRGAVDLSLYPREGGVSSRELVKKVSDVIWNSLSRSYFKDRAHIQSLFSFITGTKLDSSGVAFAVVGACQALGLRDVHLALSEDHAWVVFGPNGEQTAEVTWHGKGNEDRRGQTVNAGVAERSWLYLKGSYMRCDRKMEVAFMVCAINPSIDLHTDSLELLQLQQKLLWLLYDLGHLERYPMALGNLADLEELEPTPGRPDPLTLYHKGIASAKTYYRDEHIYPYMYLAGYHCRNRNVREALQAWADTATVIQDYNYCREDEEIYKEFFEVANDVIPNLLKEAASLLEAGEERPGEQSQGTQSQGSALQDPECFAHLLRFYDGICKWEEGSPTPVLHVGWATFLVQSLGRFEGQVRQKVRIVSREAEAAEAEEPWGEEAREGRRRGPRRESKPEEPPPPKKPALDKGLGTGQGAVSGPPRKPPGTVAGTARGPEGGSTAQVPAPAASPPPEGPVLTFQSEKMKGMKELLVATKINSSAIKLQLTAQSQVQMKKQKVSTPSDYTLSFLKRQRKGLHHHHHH
Briefly: Menin/MLL homogenous time-resolved fluorescence (HTRF) assay. The assay is classed as binding. The conditions noted are these: 30 min incubation. An outline of the steps:
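Competition binding read by time-resolved FRET (FITC 520 nm over terbium 490 nm) after compound meets labeled menin 1-610-His […] for 30 min, then FITC-MBM1 (75 nM) for 15 min, ambient temperature, 0.5% DMSO. Eleven-point four-fold dilutions, usually starting at 10 μM, fitted to four-parameter curves for IC50.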

Assay [2] has as its system MEIS1 mRNA expression. The assay is described as follows: MEIS1 mRNA expression assay (Quantigene Singleplex) in MOLM14 cells. In kind it is cell-based, human. To be noted: 48 hours incubation. An outline of the steps: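 Read-out: MEIS1 transcript counts, background-subtracted and divided by RPL28, expressed as fold change over DMSO-treated cells, then dose-response modelled for IC50. MOLM14 cells (3,750/well) received graded compound for 48 h before lysis and QuantiGene hybridization at 55 °C.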

Broadly, the IC50 is the midpoint of a concentration-inhibition curve. Low readings indicate inhibition by little substance, high ones a need for much substance. On to `Cc1cncc2c1c(CC1CN(CC3CCOCC3)C1)cn2-c1ccc(F)cc1C(=O)N1CCC(O)C1(C)C` (stereo not shown) [Compound 272], for which the half-maximal inhibitory concentration (IC50) was 0.31 nM in assay [1] and approximately 270 nM in assay [2] (Homo sapiens, MOLM-14, 48 h).
Consider `Cc1cncc2c1c(CC1CNC(CC3CCOCC3)C1)cn2-c1ccc(F)cc1C(=O)N(C)C(C)C` (single isomer, unassigned) [Compound 134d], for which the IC50 was 0.425 nM in assay [1] and more than 1000 nM in assay [2].
`Cc1cncc2c1c(CC1CCN(CC3CCN(C(=O)CCO)CC3)C1)cn2-c1ccc(F)cc1C(=O)N(C)C(C)C` (single isomer, unassigned) [Compound 82]: the IC50 in assay [1] is approximately 0.035 nM; in assay [2] (Homo sapiens, MOLM-14, 48 h) it was 11 nM.
In the case of `CCN(C(=O)c1cc(F)ccc1-n1cc(C[C@@H]2CCN(CC3CCOCC3)C2)c2c(C)cncc21)C(C)C` [Compound 257], the IC50 worked out at 0.031 nM in assay [1] and 7 nM in assay [2] (Homo sapiens, MOLM-14, 48 h).
As for `CC(=O)N1CCC(CN2CC[C@@H](Cc3cn(-c4ccc(F)cc4C(=O)N4C[C@@H](O)C[C@H]4C)c4cncc(C)c34)C2)CC1` [Compound 327], the IC50 in assay [1] is 0.819 nM; in assay [2] (Homo sapiens, MOLM-14, 48 h), approximately 616 nM.
Consider `CC(=O)N1CCCC(N2CC[C@H](Cc3cn(-c4ccc(F)cc4C(=O)N(C)C(C)C)c4cncc(C)c34)C2)CC1` (mixture of isomers) [Compound 222], for which the half-inhibitory concentration (IC50) was found to be 0.103 nM in assay [1] and 259 nM in assay [2] (Homo sapiens, MOLM-14, 48 h).
Consider `Cc1cncc2c1c(CC1CN(CC3CCOCC3)C1)cn2-c1ccc(F)cc1C(=O)N(C)C1(CO)CC1` [Compound 277], for which the half-inhibitory concentration (IC50) was 0.481 nM in assay [1] and approximately 502 nM in assay [2] (Homo sapiens, MOLM-14, 48 h).
With `CCC(C1CCN(C(C)=O)CC1)N1CC[C@@H](Cc2cn(-c3ccc(F)cc3C(=O)N(C)C(C)C)c3cncc(C)c23)C1` (single isomer, unassigned) [Compound 247], the half-maximal inhibitory concentration (IC50) in assay [1] is 0.179 nM; in assay [2] it was 116 nM.
Regarding `Cc1cncc2c1c(C[C@@H]1CCN(CC3COC3)C1)cn2-c1ccc(F)cc1C(=O)N(C)C(C)C` (single isomer, unassigned) [Compound 46], the IC50 in assay [1] was 0.047 nM; in assay [2] (Homo sapiens, MOLM-14, 48 h) it was 92 nM.
For `Cc1cncc2c1c(CC1CN(CC3(C)CCN(C(N)=O)CC3)C1)cn2-c1ccc(F)cc1C(=O)N(C)C(C)C` [Compound 219], the concentration for half-maximal inhibition (IC50) came out at 0.039 nM in assay [1] and 32 nM in assay [2] (Homo sapiens, MOLM-14, 48 h).
On the same counts, the results for `CC(=O)N1CCCCC1C1(CN2CC(Cc3cn(-c4ccc(F)cc4C(=O)N(C)C(C)C)c4cncc(C)c34)C2)CC1` (stereo not shown) [Compound 297] are 0.477 nM and more than 1000 nM.
As to `Cc1cncc2c1c(CC1CN([C@H](C)C3CCS(=O)(=O)CC3)C1)cn2-c1ccc(F)cc1C(=O)N(C)C(C)C` (single isomer, unassigned) [Compound 213a], the half-inhibitory concentration (IC50) in assay [1] was 0.567 nM; in assay [2] (Homo sapiens, MOLM-14, 48 h), 1150 nM.
The matching figures for `Cc1cncc2c1c(CC1CN(CC3CCOCC3)C1)cn2-c1ccc(F)cc1C(=O)N1CC2(O)CC1C2` [Compound 273]: 1.08 nM and more than 1000 nM.
`Cc1cncc2c1c(C[C@@H]1CCN(CC3CCOCC3)C1)cn2-c1ccc(F)cc1C(=O)N(C[C@@H](C)O)C(C)C` (single isomer, unassigned) [Compound 365a]: the IC50 turned out to be 0.102 nM in assay [1] and 35 nM in assay [2] (Homo sapiens, MOLM-14, 48 h).
In the case of `CC(=O)N1CCC([C@H](C)N2CC(Cc3cn(-c4ccc(F)cc4C(=O)N(C)C(C)C)c4cncc(C)c34)C2)CC1` (single isomer, unassigned) [Compound 151], the IC50 in assay [1] worked out at 3.77 nM; in assay [2] (Homo sapiens, MOLM-14, 48 h) it was 1350 nM.
For `CC(=O)N1CCCC(N2CC[C@@H](Cc3cn(-c4ccc(F)cc4C(=O)N(C)C(C)C)c4cncc(C)c34)C2)CC1` (mixture of isomers) [Compound 216], the concentration for half-maximal inhibition (IC50) came out at 0.187 nM in assay [1] and 100 nM in assay [2] (Homo sapiens, MOLM-14, 48 h).
As to `Cc1cncc2c1c(C=C1CCN(CC3CCOCC3)C1)cn2-c1ccc(F)cc1C(=O)N(C)C(C)C` (single isomer, unassigned) [Compound 523b], the figures for the IC50 in assay [1] and in assay [2] were 0.124 nM and 62 nM, respectively.
Regarding `CC(=O)N1CCC[C@@H](CN2CC(Cc3cn(-c4ccc(F)cc4C(=O)N(C)C(C)C)c4cncc(C)c34)C2)C1` (single isomer, unassigned) [Compound 90b], the IC50 in assay [1] amounted to 0.263 nM; in assay [2] (Homo sapiens, MOLM-14, 48 h) it was 103 nM.
The matching figures for `COCC(=O)N1CC(CN2CCC(Cc3cn(-c4ccc(F)cc4C(=O)N(C)C(C)C)c4cncc(C)c34)CC2)C1` [Compound 111]: 0.745 nM and approximately 707 nM.
Regarding `Cc1cncc2c1c(CC1(C)CCN(CC3CCOCC3)C1)cn2-c1ccc(F)cc1C(=O)N(C)C(C)C` (stereo not shown) [Compound 239], the IC50 worked out at 0.305 nM in assay [1] and 138 nM in assay [2] (Homo sapiens, MOLM-14, 48 h).
As to `CC(=O)N1CCC2(CCC2N2CC(Cc3cn(-c4ccc(F)cc4C(=O)N(C)C(C)C)c4cncc(C)c34)C2)CC1` (stereo not shown) [Compound 296], the IC50 in assay [1] amounted to 0.339 nM; in assay [2] (Homo sapiens, MOLM-14, 48 h), 549 nM.
As to `CC(=O)N1CC(CN2CC(Cc3cn(-c4ccc(F)cc4C(=O)N(C)C(C)C)c4cncc(C)c34)C2)C1` [Compound 114], the concentration for half-maximal inhibition (IC50) in assay [1] stood at 0.173 nM; in assay [2] (Homo sapiens, MOLM-14, 48 h), 487 nM.
As for `Cc1cncc2c1c(CC1CN(CC3CCOCC3)C1)cn2-c1ccc(F)cc1C(=O)N(C)[C@H]1C[C@@H](O)C1` [Compound 274], the half-inhibitory concentration (IC50) was 2.42 nM in assay [1] and more than 1000 nM in assay [2] (Homo sapiens, MOLM-14, 48 h).
Consider `Cc1cncc2c1c(C[C@H]1CCN(CC3CCN(C(=O)C(C)C)CC3)C1)cn2-c1ccc(F)cc1C(=O)N(C)C(C)C` (single isomer, unassigned) [Compound 121], for which the 50% inhibitory concentration (IC50) in assay [1] is 0.049 nM; in assay [2] (Homo sapiens, MOLM-14, 48 h) it was 13 nM.
In the case of `Cc1cncc2c1c(CC1CN(CC3CCOCC3)C1)cn2-c1ccc(F)cc1C(=O)N1CCCCC1C` (stereo not shown) [Compound 280], the half-maximal inhibitory concentration (IC50) in assay [1] was found to be 0.077 nM; in assay [2] (Homo sapiens, MOLM-14, 48 h) it was 51 nM.
With `Cc1cncc2c1c(CC1CN(CC3CCOCC3)C1)cn2-c1ccc(F)cc1C(=O)N1CCC12COC2` [Compound 266], the IC50 was determined as 0.349 nM in assay [1] and 431 nM in assay [2] (Homo sapiens, MOLM-14, 48 h).
`CC(=O)N1CCC(CN2CCCC(Cc3cn(-c4ccc(F)cc4C(=O)N(C)C(C)C)c4cncc(C)c34)CC2)CC1` (stereo not shown) [Compound 160]: the half-maximal inhibitory concentration (IC50) is 4.02 nM in assay [1] and more than 1000 nM in assay [2] (Homo sapiens, MOLM-14, 48 h).
On the same counts, the results for `Cc1cncc2c1c(CC1CN(CC3CCN(C(=O)OC(C)(C)C)CC3)C1)cn2-c1ccc(F)cc1C(=O)N(C)C(C)C` [Compound 62] are 0.085 nM and 14 nM.
Regarding `Cc1cncc2c1c(CC1CN([C@@H](C(C)C)[C@H]3C[C@H](N4CCC(S(C)(=O)=O)CC4)C3)C1)cn2-c1ccc(F)cc1C(=O)N(C)C(C)C` [Compound 33b], the half-maximal inhibitory concentration (IC50) in assay [1] was determined as 0.03 nM; in assay [2] (Homo sapiens, MOLM-14, 48 h), 23 nM.
The matching figures for `Cc1cncc2c1c(CC1CN(CC3CCOCC3)C1)cn2-c1ccc(F)cc1C(=O)N1C[C@H](O)C[C@@H]1C` [Compound 282]: 3.27 nM and more than 1000 nM.
As to `CC(=O)N1CC2CC1C2C(C)N1CC(Cc2cn(-c3ccc(F)cc3C(=O)N(C)C(C)C)c3cncc(C)c23)C1` (stereo not shown) [Compound 304], the IC50 was 2.8 nM in assay [1] and more than 1000 nM in assay [2] (Homo sapiens, MOLM-14, 48 h).
As for `Cc1cncc2c1c(C[C@@H]1CCN([C@H](CN(C)C)C3CCOCC3)C1)cn2-c1ccc(F)cc1C(=O)N(C)C(C)C` (single isomer, unassigned) [Compound 240b], the IC50 in assay [1] was found to be 0.151 nM; in assay [2] (Homo sapiens, MOLM-14, 48 h), 38 nM.
Take `Cc1cncc2c1c(CC1CN(CC3CNCC(=O)C3)C1)cn2-c1ccc(F)cc1C(=O)N(C)C(C)C` (stereo not shown) [Compound 196]: the concentration for half-maximal inhibition (IC50) in assay [1] was determined as 0.19 nM; in assay [2] (Homo sapiens, MOLM-14, 48 h) it was 438 nM.
`CN=[S@@](=O)(c1cc(F)ccc1-n1cc(C[C@@H]2CCN(CC3CCN(C(C)=O)CC3)C2)c2c(C)cncc21)C(C)C` (single isomer, unassigned) [Compound 128c]: the IC50 in assay [1] is 1.01 nM; in assay [2] (Homo sapiens, MOLM-14, 48 h) it was approximately 487 nM.
Consider `Cc1cncc2c1c(C[C@H]1CCN(CC3CCCCC3)C1)cn2-c1ccc(F)cc1C(=O)N(C)C(C)C` [Compound 194], for which the half-maximal inhibitory concentration (IC50) was found to be 0.072 nM in assay [1] and 66 nM in assay [2] (Homo sapiens, MOLM-14, 48 h).
As for `COC(=O)N1CCC(CN2CC[C@@H](Cc3cn(-c4ccc(F)cc4C(=O)N(C[C@H](C)O)C(C)C)c4cncc(C)c34)C2)CC1` [Compound 335], the concentration for half-maximal inhibition (IC50) worked out at 0.193 nM in assay [1] and 18 nM in assay [2] (Homo sapiens, MOLM-14, 48 h).
Turning to `CC(=O)N1CCC(C)C(N2CC[C@@H](Cc3cn(-c4ccc(F)cc4C(=O)N(C)C(C)C)c4cncc(C)c34)C2)C1` (stereo partly shown) [Compound 243], the results for the IC50 in assay [1] and in assay [2] were 0.097 nM and 37 nM, respectively.
In the case of `CC(=O)N1CCC(CN2CC[C@@H](Cc3cn(-c4ccc(F)cc4C(=O)N(C(C)C)C(C)C)c4cncc(C)c34)C2)CC1` [Compound 258], the 50% inhibitory concentration (IC50) in assay [1] worked out at 0.021 nM; in assay [2] (Homo sapiens, MOLM-14, 48 h), 11 nM.

The values are drawn from US20230250096A1, “SUBSTITUTED PHENYL-1H-PYRROLO[2,3-c] PYRIDINE DERIVATIVES” (Janssen Pharmaceutica NV, priority 2021, published 2023).
